The values that follow come from ChEMBL document CHEMBL4622850, “Discovery and optimization of new oxadiazole substituted thiazole RORγt inverse agonists through a bioisosteric amide replacement approach” (Bioorg Med Chem Lett, 2020).

Data set [1] concerns the target T1, Nuclear receptor subfamily 1 group I member 2 (Homo sapiens, UniProt O75469).
T1 sequence (O75469 whole entry): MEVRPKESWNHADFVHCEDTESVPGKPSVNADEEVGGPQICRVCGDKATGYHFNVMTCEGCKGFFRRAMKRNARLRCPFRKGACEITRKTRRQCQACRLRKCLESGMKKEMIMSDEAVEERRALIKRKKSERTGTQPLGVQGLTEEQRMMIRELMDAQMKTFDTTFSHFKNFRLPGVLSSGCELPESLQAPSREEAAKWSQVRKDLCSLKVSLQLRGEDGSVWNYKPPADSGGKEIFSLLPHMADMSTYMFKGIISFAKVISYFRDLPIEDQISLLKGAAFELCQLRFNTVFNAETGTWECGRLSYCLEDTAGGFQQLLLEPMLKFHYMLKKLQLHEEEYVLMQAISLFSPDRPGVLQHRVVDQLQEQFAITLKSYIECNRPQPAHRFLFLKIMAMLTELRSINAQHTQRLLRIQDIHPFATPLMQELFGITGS
As to the kind of experiment: Activation of PXR (unknown origin) at 5 uM. Type of data set: ADME.

For data set [2], the target named is T2, Nuclear receptor ROR-gamma (Mus musculus, UniProt P51450).
T2 sequence (P51450 whole entry): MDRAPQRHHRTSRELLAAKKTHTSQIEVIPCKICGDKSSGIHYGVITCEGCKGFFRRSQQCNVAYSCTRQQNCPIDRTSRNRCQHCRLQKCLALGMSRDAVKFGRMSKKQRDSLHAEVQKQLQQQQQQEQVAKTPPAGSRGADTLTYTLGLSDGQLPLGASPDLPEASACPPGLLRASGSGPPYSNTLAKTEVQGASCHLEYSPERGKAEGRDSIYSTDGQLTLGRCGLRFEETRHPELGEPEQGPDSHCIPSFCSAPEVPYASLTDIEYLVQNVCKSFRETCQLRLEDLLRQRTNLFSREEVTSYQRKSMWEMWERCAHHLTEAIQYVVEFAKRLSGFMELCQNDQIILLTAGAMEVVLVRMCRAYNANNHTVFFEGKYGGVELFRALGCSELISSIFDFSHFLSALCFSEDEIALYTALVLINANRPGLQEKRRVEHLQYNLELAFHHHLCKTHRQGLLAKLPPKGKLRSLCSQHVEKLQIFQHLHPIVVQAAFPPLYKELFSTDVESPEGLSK
The data set is described as follows: Inverse agonist activity at RORgammat in mouse whole blood assessed as reduction in IL-17a production. Type of data set: tissue-based.

Data set [3] is described as follows: Solubility of compound by pH 2. Type of data set: physicochemical. The note with it: buffer.
The nature of data set [4]: Solubility of compound by pH 7. Type of data set: physicochemical. Conditions: buffer.
Data set [5] is described as follows: Cmax in rat at 5 mg/kg, po. The data set is classed as ADME, organism-based. On the set-up: dose 5 mg/kg, route oral. Conditions: in vivo.
Data set [6] is described as follows: Half life in rat at 1 mg/kg, iv. The data set is classed as ADME, organism-based. The note with it: in vivo.
Data set [7] can be described thus: Metabolic stability in rat liver microsomes assessed as half life. The data set is classed as ADME, Microsome.
Data set [8] can be described thus: Volume of distribution in rat at 1 mg/kg, iv. Type of data set: ADME, organism-based. Conditions: in vivo.
A short description of data set [9]: AUC in rat at 5 mg/kg, po. Type of data set: ADME, organism-based. Conditions: in vivo.
Data set [10] in a line: Oral bioavailability in rat at 1 mg/kg. The data set is classed as ADME, organism-based. The note with it: in vivo.
A short description of data set [11]: Clearance in rat at 1 mg/kg, iv. The note with it: in vivo. Type of data set: ADME, organism-based.
The target of data set [12] is T3, Nuclear receptor ROR-beta (Homo sapiens, UniProt Q92753).
T3 sequence (Q92753 whole entry): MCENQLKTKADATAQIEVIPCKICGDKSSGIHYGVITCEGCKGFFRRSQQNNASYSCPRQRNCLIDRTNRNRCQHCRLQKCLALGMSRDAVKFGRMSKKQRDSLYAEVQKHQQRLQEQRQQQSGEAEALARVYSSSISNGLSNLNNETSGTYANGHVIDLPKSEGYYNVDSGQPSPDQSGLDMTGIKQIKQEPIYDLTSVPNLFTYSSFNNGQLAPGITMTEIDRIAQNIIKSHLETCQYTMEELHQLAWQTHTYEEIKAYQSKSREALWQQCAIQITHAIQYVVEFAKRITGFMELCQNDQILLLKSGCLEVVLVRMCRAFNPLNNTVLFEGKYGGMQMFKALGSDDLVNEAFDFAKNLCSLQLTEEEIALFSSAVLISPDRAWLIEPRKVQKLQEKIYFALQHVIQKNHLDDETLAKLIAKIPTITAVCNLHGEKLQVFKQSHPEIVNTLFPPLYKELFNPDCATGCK
The data set is described as follows: Binding affinity to RORbeta (unknown origin) assessed as dissociation constant by thermal shift binding assay.

The target in data set [13] is Cytochrome P450 2C9 (Homo sapiens, UniProt P11712). As to the kind of experiment: Inhibition of CYP2C9 (unknown origin). The data set is classed as ADME.
Data set [14] deals with Cytochrome P450 2C19 (Homo sapiens, UniProt P33261). The data set is described as follows: Inhibition of CYP2C19 (unknown origin). Type of data set: ADME.

The structures appear in SMILES notation. ≈ marks a conversion by molar mass, not a printed value.

Chain of Cytochrome P450 2C9 (P11712 whole entry): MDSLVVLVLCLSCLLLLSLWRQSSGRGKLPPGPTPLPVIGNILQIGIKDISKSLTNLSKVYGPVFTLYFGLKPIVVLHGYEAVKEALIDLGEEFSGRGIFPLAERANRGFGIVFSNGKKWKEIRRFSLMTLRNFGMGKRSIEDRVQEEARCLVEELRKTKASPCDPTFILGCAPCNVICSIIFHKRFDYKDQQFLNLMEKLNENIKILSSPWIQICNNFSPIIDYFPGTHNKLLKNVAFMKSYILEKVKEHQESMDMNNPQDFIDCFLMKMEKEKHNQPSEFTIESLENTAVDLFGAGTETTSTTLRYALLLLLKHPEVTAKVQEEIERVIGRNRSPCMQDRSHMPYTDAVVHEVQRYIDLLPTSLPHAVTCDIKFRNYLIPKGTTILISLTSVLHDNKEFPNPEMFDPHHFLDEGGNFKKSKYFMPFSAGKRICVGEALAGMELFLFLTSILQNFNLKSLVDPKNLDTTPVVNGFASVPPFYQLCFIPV
Chain of Cytochrome P450 2C19 (P33261 whole entry): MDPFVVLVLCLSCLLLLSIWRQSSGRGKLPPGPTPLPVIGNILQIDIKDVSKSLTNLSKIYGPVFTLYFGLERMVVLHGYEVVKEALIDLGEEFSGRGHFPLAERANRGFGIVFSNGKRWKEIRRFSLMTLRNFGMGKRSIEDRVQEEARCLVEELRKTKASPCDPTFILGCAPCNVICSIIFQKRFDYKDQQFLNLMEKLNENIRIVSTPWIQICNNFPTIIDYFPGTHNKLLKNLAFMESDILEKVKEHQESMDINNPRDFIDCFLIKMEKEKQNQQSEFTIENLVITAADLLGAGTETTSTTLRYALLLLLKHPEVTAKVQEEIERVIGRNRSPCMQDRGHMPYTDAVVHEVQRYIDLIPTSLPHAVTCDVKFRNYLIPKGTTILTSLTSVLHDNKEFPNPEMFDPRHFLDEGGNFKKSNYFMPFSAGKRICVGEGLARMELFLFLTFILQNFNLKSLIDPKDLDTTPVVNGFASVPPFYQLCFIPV

`C[C@H](NS(=O)(=O)c1ccc(-c2sc(CC(C)(C)C(=O)O)nc2CC2CCC2)c(Cl)c1Cl)C(F)(F)F`: in [1], the Activity turned out to be 33%. Also, the IC50 in [2] amounted to 1870 nM. For the same compound, the solubility is under 4 µM in data set [3] and 268 µM (≈ 154 µg/mL) in [4].
`C[C@H](NS(=O)(=O)c1ccc(-c2sc(-c3nnc([C@H]4C[C@H](C(=O)O)C4)o3)nc2CC2CCC2)c(Cl)c1Cl)C(F)(F)F`: the solubility in [3] was under 4 µM; in data set [4] it was 118 µM (≈ 75.5 µg/mL).
For the compound `C[C@H](NS(=O)(=O)c1ccc(-c2sc(-c3nnc(CC(C)(C)C(=O)O)o3)nc2CC2CCC2)c2ccccc12)C(F)(F)F`, the Cmax in data set [5] amounted to 2300 nM. Moreover, the half-life is 3.1 h in [6] and over 3 h in data set [7]. For the same compound, the solubility in [3] was under 4 µM; in data set [4] it was 24 µM (≈ 14.9 µg/mL). The Vd in data set [8] came out at 1.1 L/kg. This compound also yielded an AUC in data set [9] of 13100 ng·h/mL. This compound had a bioavailability in data set [10] of 96%. In data set [11], this compound yielded a clearance of 6 mL/min/kg.
With `C[C@H](NS(=O)(=O)c1ccc(-c2sc(-c3nnc(CC(C)(C)C(=O)O)o3)nc2C(=O)N2CCCC[C@@H]2C)c(C(F)F)c1F)C(F)(F)F`, the solubility in [3] was under 4 µM; in data set [4] it was 398 µM (≈ 278 µg/mL).
The compound `CC[C@H](NS(=O)(=O)c1ccc(-c2sc(CC(C)(C)C(=O)O)nc2CC2CCC2)c(Cl)c1)C(F)(F)F` returned an Activity in [1] of 2%.
The same measure, in the same setting: the result for `C[C@H](NS(=O)(=O)c1ccc(-c2sc(CC(C)(C)C(=O)O)nc2CC2CCC2)c(C(F)(F)F)c1)C(F)(F)F` reads 43%.
Turning to `C[C@H](NS(=O)(=O)c1ccc(-c2sc(-c3cnc(CC(C)(C)C(=O)O)s3)nc2CC2CCC2)c(Cl)c1Cl)C(F)(F)F`, the solubility in data set [3] and in [4] was under 4 µM throughout.
Regarding `C[C@H](NS(=O)(=O)c1ccc(-c2sc(-c3nnc(C(C)(C)O)o3)nc2C(=O)N2CCC(F)CC2)c(Cl)c1Cl)C(F)(F)F`, the solubility in data set [4] amounted to 165 µM (≈ 109 µg/mL). The Kd in [12] is over 50000 nM.
For `CC[C@H](NS(=O)(=O)c1ccc(-c2sc(-c3nnc(CC(C)(C)C(=O)O)o3)nc2CC2CCCCC2)c(C(F)F)c1F)C(F)(F)F`, the IC50 in [2] amounted to 1540 nM. Further, the solubility in data set [3] and in [4] was under 4 µM throughout.
As for `C[C@H](NS(=O)(=O)c1ccc(-c2sc(-c3noc(CC(C)(C)C(=O)O)n3)nc2CC2CCC2)c(Cl)c1Cl)C(F)(F)F`, the half-maximal inhibitory concentration (IC50) in data set [2] came out at 790 nM. The results for the solubility in [3] and in data set [4] were under 4 µM and 38 µM (≈ 24.4 µg/mL), respectively.
As for `C[C@H](NS(=O)(=O)c1ccc(-c2sc(-c3nnc(CC(C)(C)C(=O)O)s3)nc2CC2CCC2)c(Cl)c1Cl)C(F)(F)F`, half-maximal inhibition in data set [13] (IC50) was put at 900 nM.
In [5], `CC(C)(C)NS(=O)(=O)c1ccc(-c2sc(C(=O)N[C@H]3C[C@H](C(=O)O)C3)nc2CC2CCCCC2)c2ccccc12` returned a Cmax of 220 nM. Moreover, the solubility in [3] and in data set [4] was under 1 µM each time. The compound also came in with an exposure (AUC) in [9] of 302 ng·h/mL. Besides, the bioavailability in [10] worked out at 20%.
Consider `CC(C)(O)CNC(=O)c1nc(CC2CCCCC2)c(-c2ccc(S(=O)(=O)NC(C)(C)C)c3ccccc23)s1`, for which the solubility in data set [3] and in data set [4] was under 4 µM each time.
Regarding `COC(C)(C)Cc1nc(-c2nnc(CC(C)(C)C(=O)O)o2)sc1-c1ccc(S(=O)(=O)N[C@@H](C)C(F)(F)F)c(F)c1C(F)F`, the half-maximal inhibitory concentration (IC50) in [2] turned out to be 9000 nM. Also, the solubility is under 4 µM in data set [3] and 363 µM (≈ 239 µg/mL) in [4].
Take `C[C@H](NS(=O)(=O)c1ccc(-c2sc(-c3noc(C(C)(C)O)n3)nc2C(=O)N2CCC(F)CC2)c(Cl)c1Cl)C(F)(F)F`: the solubility came to 9.7 µM (≈ 6.41 µg/mL) in data set [3] and 6.4 µM (≈ 4.23 µg/mL) in [4]. In addition, the equilibrium dissociation constant (Kd) in data set [12] was over 91000 nM.
As to `C[C@H](NS(=O)(=O)c1ccc(-c2sc(-c3nnc(CC(C)(C)C(=O)O)o3)nc2CN2CCCC(F)(F)C2)c(C(F)F)c1F)C(F)(F)F`, in data set [2], the half-inhibitory concentration (IC50) came to 448 nM. In addition, the solubility in data set [3] was found to be 54 µM (≈ 38.1 µg/mL); in [4] it was 182 µM (≈ 128 µg/mL).
For `CC[C@H](NS(=O)(=O)c1ccc(-c2sc(CC(C)(C)C(=O)O)nc2CC2CCC2)c(Cl)c1Cl)C(F)(F)F`, the Activity in [1] was 40%. The solubility in data set [3] is under 4 µM; in data set [4] it was 178 µM (≈ 105 µg/mL).
For the compound `C[C@H](NS(=O)(=O)c1ccc(-c2sc(-c3nnc(CC(C)(C)C(=O)O)o3)nc2Cc2ccc(F)cc2)c(C(F)F)c1F)C(F)(F)F`, the solubility in [3] was under 4 µM; in data set [4] it was 57 µM (≈ 38.8 µg/mL).
On to `C[C@H](NS(=O)(=O)c1ccc(-c2sc(-c3cc(CC(C)(C)C(=O)O)on3)nc2CC2CCC2)c(Cl)c1Cl)C(F)(F)F`, for which the solubility in [3] and in [4] was under 4 µM each time.
On to `C[C@H](NS(=O)(=O)c1ccc(-c2sc(C(=O)NCC(C)(C)O)nc2CC2CCC2)c(Cl)c1Cl)C(F)(F)F`, for which the half-life in data set [7] came out at 0.617 h.
`CC[C@H](NS(=O)(=O)c1ccc(-c2sc(-c3nnc(CC(C)(C)C(=O)O)o3)nc2CC2CCCC2)c(C(F)F)c1F)C(F)(F)F`: in data set [2], the IC50 came to 230 nM. Besides, the values for the solubility in data set [3] and in [4] were under 4 µM and 69 µM (≈ 46.1 µg/mL), respectively.
The matching figures for `CC[C@H](NS(=O)(=O)c1ccc(-c2sc(-c3nnc(CC(C)(C)O)o3)nc2C(=O)N2CCC(F)CC2)c(Cl)c1Cl)C(F)(F)F`: 120 nM, 41 µM (≈ 28.2 µg/mL) and 99 µM (≈ 68.2 µg/mL).
Compound `C[C@H](NS(=O)(=O)c1ccc(-c2sc(-c3cc(CC(C)(C)C(=O)O)ncn3)nc2CC2CCC2)c(Cl)c1Cl)C(F)(F)F` yielded an IC50 in [14] of 790 nM.
With `CC(C)(C)NS(=O)(=O)c1ccc(-c2sc(-c3nnc(C(C)(C)O)o3)nc2CC2CCCCC2)c2ccccc12`, the solubility in [3] and in data set [4] was under 1 µM each time.
As for `CCN(CC)C(=O)c1nc(-c2nnc(C(C)(C)O)o2)sc1-c1ccc(S(=O)(=O)N[C@@H](C)C(F)(F)F)c(Cl)c1Cl`, the IC50 in [2] came out at 100 nM. Also, the concentration in solution in [4] (solubility) came to 55 µM (≈ 34.7 µg/mL). Further, the Kd in data set [12] is over 60000 nM. In addition, in [7], the half-life is 1.58 h.

A word on the IC50: it is the concentration that gives 50% inhibition. The solubility is the concentration that dissolves in the medium under given conditions. Low values mean a poorly soluble substance, high ones a readily soluble substance. One may read the Cmax as the peak of the concentration-time curve. The half-life is the time needed for the level to fall by half in the phase considered. As usually defined, the Vd is the apparent volume that relates the amount in the body to the concentration in plasma or blood. Lower therefore signals little distribution into tissue. The term AUC denotes the area under the concentration-time curve, a measure of exposure. A lower AUC goes with less exposure. Broadly, the bioavailability is the share of a dose that reaches the circulation, judged against a reference dose that is usually intravenous. Higher therefore signals much systemic uptake. What is called clearance is the volume of plasma or blood freed of the substance per unit of time. The term Kd denotes the free concentration of one partner at which half of the binding sites on the other are occupied at equilibrium, for simple one-to-one binding.
